Experimental data reported in ChEMBL document CHEMBL5727392, “2,4-disubstituted pyrimidines as CDK inhibitors” (2019).

Target: Cyclin-dependent kinase 4 (Homo sapiens, UniProt P11802)
Assay: Caliper Mobility Shift Assay: CDK4: The test compound was dissolved in DMSO and diluted with a kinase buffer solution (20 mM HEPES-pH 7.5, 0.01% Triton X-100, 10 mM MgCl2, 2 mM DTT) and 5 μL of compound at 5-fold final concentration of reaction dissolved in 10% DMSO was added in a 384-well plate. The compound-free control well was 5 μL of 10% DMSO, and the no-activity control well was 5 μL of kinase buffer. 10 μL of a 2.5-fold diluted CDK4 enzyme solution (GST-CDK4(1-303 end)) was added and incubated at room temperature for 10 min, and then 10 μL of the 2.5-fold diluted substrate solution Peptide FAM-P8 was added. The reaction was stopped by adding 25 μL of stop solution after incubation at 28° C. for 3 h, and the conversion rate data was read on a Caliper EZ Reader II (Caliper Life Sciences) and the conversion rate was converted to inhibition rate data according to above method.

Chain of Cyclin-dependent kinase 4 (P11802 whole entry): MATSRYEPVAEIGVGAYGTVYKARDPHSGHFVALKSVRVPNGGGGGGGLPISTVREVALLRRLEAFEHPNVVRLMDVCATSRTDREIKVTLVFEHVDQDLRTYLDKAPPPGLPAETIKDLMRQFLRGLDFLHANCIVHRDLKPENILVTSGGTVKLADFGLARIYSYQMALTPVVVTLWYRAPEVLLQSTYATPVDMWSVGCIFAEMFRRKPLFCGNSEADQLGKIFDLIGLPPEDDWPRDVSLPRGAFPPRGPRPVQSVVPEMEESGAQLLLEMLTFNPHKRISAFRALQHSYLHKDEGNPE

IC50 [nM]	Compound
< 20	CC(C)c1c2ccc(-c3nc(Nc4ccc(N5CCNCC5)cn4)ncc3F)c(Cl)c2nn1C
< 20	CC(C)c1c(C#N)n(C2CC2)c2ccc(-c3nc(Nc4ccc(CN5CCN(C6CC6)CC5)cn4)ncc3F)cc12
